The source made the active and inactive calls. No cut-off for these calls is given here.
Key:
[1] = test system: SUD4; assay: Upregulation of p27 protein level in human SU-DHL-4 cells incubated for 48 hrs by Western blot analysis; type: functional, cell-based; details: dose 0.1-10 µM
[2] = target: T1, Protein cereblon/B-cell lymphoma 6 protein (Homo sapiens, UniProt Q96SW2+P41182); assay: PROTAC activity at CRBN/BCL6 in human SU-DHL-4 cells assessed as reduction in half life BCL6 at 1 uM preincubated with compound for 24 hrs followed by CHX addition and measured after 4 hrs by Western blot analysis; type: cell-based; details: time 28.0 hrs
[3] = test system: SUD4; assay: Upregulation of p21 protein level in human SU-DHL-4 cells incubated for 48 hrs by Western blot analysis; type: functional, cell-based; details: dose 0.1-10 µM
[4] = Antitumor activity against human SU-DHL-4 cells xenografted in female nude nu/nu mouse assessed as tumor growth inhibition at 10 mg/kg, ip measured after 21 days by microcaliper based analysis relative to control; type: functional, SUD4; details: SU-DHL-4, 504 h, time 21 day, read-out: TGI
[5] = test system: SUD4; assay: Antiproliferative activity against BCL6-dependent human SU-DHL-4 cells assessed as inhibition of cell growth at 1 uM measured after 6 days by MTT assay relative to control; type: functional; details: SU-DHL-4, 144 h, time 6 day
[6] = test system: SUD4; assay: Upregulation of CDKN1B mRNA level in human SU-DHL-4 cells at 10 uM incubated for 48 hrs by RT-qPCR analysis; type: functional, cell-based
[7] = Toxicity in female nude nu/nu mouse model xenografted with human SU-DHL-4 cells assessed as body weight loss at 10 to 40 mg/kg, ip measured after 21 days; type: organism-based, SUD4; details: in vivo, 504 h, dose 10-40 mg/kg, time 21 day
[8] = test system: SUD4; assay: Effect on BCL6 mRNA level in human SU-DHL-4 cells at 10 uM incubated for 48 hrs by RT-qPCR analysis; type: functional, cell-based
[9] = test system: DOHH-2; assay: Induction of cell cycle arrest in human DOHH-2 cells assessed as G1 phase arrest at 500 nM in presence of Ibrutinib incubated for 72 hrs by flow cytometry; type: functional, cell-based
[10] = target: T1, Protein cereblon/B-cell lymphoma 6 protein; assay: PROTAC activity at CRBN/BCL6 in human SU-DHL-4 cells assessed as induction of BCL6 degradation incubated for 48 hrs by Western blot analysis; type: cell-based
[11] = test system: Ibrutinib resistant DOHH2 cell; assay: Upregulation of p27 protein level in human Ibrutinib resistant DOHH2 cells at 0.1 to 10 uM incubated for 48 hrs by Western blot analysis; type: functional, cell-based; details: dose 0.1-10 µM
[12] = Half life in male Sprague-Dawley rat at 10 mg/kg, ip measured upto 24 hrs by LC-MS/MS analysis; type: ADME, organism-based; details: in vivo
[13] = Resistance index, ratio of IC50 for human DOHH2/Ib cells to IC50 for DOHH2 cells; type: functional
[14] = Tmax in male Sprague-Dawley rat at 10 mg/kg, ip measured upto 24 hrs by LC-MS/MS analysis; type: ADME, organism-based; details: in vivo
[15] = test system: SUD4; assay: Upregulation of p21 protein level in human SU-DHL-4 cells at 5 uM by Western blot analysis; type: functional, cell-based; details: time 12-72 hrs, TDE = time-dependent effect
[16] = test system: SUD4; assay: Induction of cell cycle arrest in human SU-DHL-4 cells assessed as G1 phase arrest at 500 nM in presence of Ibrutinib incubated for 72 hrs by flow cytometry; type: functional, cell-based
[17] = test system: SUD4; assay: Upregulation of p27 protein level in human SU-DHL-4 cells at 5 uM preincubated for 48 hrs followed by compound elution and measured after 72 hrs by Western blot analysis; type: functional, cell-based
[18] = test system: WI-38 VA13; assay: (§1) Cytotoxicity against human WI-38 VA13 cells assessed as inhibition in cell growth measured after 6 days by MTT assay; type: toxicity, cell-based; details: wi-38 va13, 144 h, time 6 day
[19] = as §1; type: toxicity, cell-based; details: WI-38 VA13 cells
[20] = MRT (0 to t) in male Sprague-Dawley rat at 10 mg/kg, ip measured upto 24 hrs by LC-MS/MS analysis; type: ADME, organism-based; details: in vivo
[21] = test system: DOHH-2; assay: Synergistic antiproliferative activity against human DOHH-2 cells assessed as combination index measured after 6 days in presence of Ibrutinib by MTT assay; type: functional; details: time 6 day
[22] = test system: SUD4; assay: Antiproliferative activity against BCL6-dependent human SU-DHL-4 cells assessed as inhibition of cell growth at 10 uM measured after 6 days by MTT assay relative to control; type: functional; details: SU-DHL-4, 144 h, time 6 day
[23] = MRT (0 to t) in male Sprague-Dawley rat at 20 mg/kg, po measured upto 24 hrs by LC-MS/MS analysis; type: ADME, organism-based; details: in vivo
[24] = test system: SUD4; assay: Synergistic antiproliferative activity against human SU-DHL-4 cells assessed as combination index measured after 6 days in presence of Ibrutinib by MTT assay; type: functional; details: time 6 day
[25] = test system: SUD4; assay: Induction of apoptosis in human SU-DHL-4 cells at 10 uM; type: functional, cell-based

T1 sequence (Q96SW2 whole entry, looked up, other chains not shown): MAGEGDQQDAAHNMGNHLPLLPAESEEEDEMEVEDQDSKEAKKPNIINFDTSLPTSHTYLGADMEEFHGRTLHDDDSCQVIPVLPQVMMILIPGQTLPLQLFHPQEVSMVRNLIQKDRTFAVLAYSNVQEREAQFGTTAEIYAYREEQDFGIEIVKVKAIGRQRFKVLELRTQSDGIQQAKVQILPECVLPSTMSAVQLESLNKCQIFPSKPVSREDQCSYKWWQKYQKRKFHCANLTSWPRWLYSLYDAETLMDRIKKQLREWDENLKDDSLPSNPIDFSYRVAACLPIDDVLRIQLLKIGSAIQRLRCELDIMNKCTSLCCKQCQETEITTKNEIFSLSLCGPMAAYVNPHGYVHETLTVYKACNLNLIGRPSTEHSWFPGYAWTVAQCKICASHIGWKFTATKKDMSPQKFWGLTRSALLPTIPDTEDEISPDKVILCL

## COc1cc(Nc2nc(N3CCN(CCOCCNc4cccc5c4C(=O)N(C4CCC(=O)NC4=O)C5=O)CC3)ncc2F)ccc1NC(=O)c1ccc(C2=CCCC2)s1 (stereo unspecified)
[1]
  Activity: Dose-Dependent Effect
[2]
  Activity: Active
[3]
  Activity: Dose-Dependent Effect
[4]
  inhibition in vivo at 10 mg/kg: 22.2%
[5]
  inhibition at 1 µM: 66.1%
[6]
  Activity: Active
[7]
  Activity: Non-Toxic
[8]
  Activity: inactive
[9]
  Activity: Active
[10]
  Activity: Dose-Dependent Effect
  DC50: 676 nM
[11]
  Activity: Active
[12]
  half-life: 2.59 h
[13]
  Ratio IC50: 31.7
[14]
  Tmax: 2.67 h
[15]
  Activity: Tde
[16]
  Activity: Active
[17]
  Activity: Active
[18]
  Activity: Dose-Dependent Effect
[19]
  IC50 at 6 days: > 10000 nM
[20]
  MRT last at 24 h: 5.3 h
[21]
  CI: 0.2
[22]
  inhibition at 10 µM: 92.6%
[23]
  MRT last at 24 h: 2.48 h
[24]
  CI: 0.5
[25]
  Activity: inactive
